# In patent US20230158063A1, “AIRWAY […] THERAPY TO TREAT VIRAL R[…]” (THE TRUSTEES OF INDIANA UNIVERSITY, priority 2020, published 2023):
# Test system: primary normal human airway epithelial (HAE) cells
# Assay: Intracellular pH of HAE cells by pH-sensitive dye fluorescence microscopy
# Format: cell-based
# Settings: HAE cells pre-loaded with 1.25 μM BCECF-AM; normalized to pre-treatment; n=3; ZnCl2 at 100 μM
compound,measurement,value
"[Cl-].[Cl-].[Zn+2] [ZnCl2, zinc chloride]",BCECF-AM fluorescence intensity (increases as pH increases),essentially eliminating fluorescence
